# From ChEMBL document CHEMBL4689842, “EUbOPEN Chemogenomics Library wave 1” (2021)
# System: U2OS
# Assay: Incucyte cell viability with U2OS; further: filed as whole numbers so only -1 and 0 and 1 occur
# Type: toxicity, cell-based
# Conditions: human, 10 µM, compound concentration 10 uM
# [1] = 0 h, replicate number 1, timepoint 0 hours
# [2] = 6 h, replicate number 1, timepoint 6 hours
# [3] = 12 h, replicate number 1, timepoint 12 hours
# [4] = 18 h, replicate number 1, timepoint 18 hours
# [5] = 24 h, replicate number 1, timepoint 24 hours
# [6] = 0 h, replicate number 2, timepoint 0 hours
# [7] = 6 h, replicate number 2, timepoint 6 hours
# [8] = 12 h, replicate number 2, timepoint 12 hours
# [9] = 18 h, replicate number 2, timepoint 18 hours
# [10] = 24 h, replicate number 2, timepoint 24 hours
SMILES,Growth Rate [1],Growth Rate [2],Growth Rate [3],Growth Rate [4],Growth Rate [5],Growth Rate [6],Growth Rate [7],Growth Rate [8],Growth Rate [9],Growth Rate [10]
C=CC(=O)Nc1cccc(Oc2nc(Nc3ccc(N4CCN(C)CC4)cc3OC)ncc2Cl)c1,0,0,0,0,0,–,–,–,–,–
Cc1cccc(CN2CCN(C(c3ccccc3)c3ccc(Cl)cc3)CC2)c1.Cl.Cl (stereo not given),0,–,–,1,1,1,0,0,0,0
C=CC(=O)Nc1cccc(Sc2nc(Nc3ccc(N4CCN(C)CC4)cc3)ncc2Cl)c1,0,0,0,0,0,–,–,–,–,–
CC(C)OC(=O)N1CCC(Oc2ncnc3c2cnn3-c2ccc(S(C)(=O)=O)cc2F)CC1,0,–,1,1,1,–,0,0,0,0
COc1cc(Nc2nccc(-c3cnn4nc(OC)ccc34)n2)cc(C(F)(F)F)c1,1,0,0,0,0,0,–,–,–,–
O=c1cc(N2CCOCC2)oc2c(-c3cccc4c3sc3ccccc34)cccc12,0,0,0,0,0,–,1,1,–,–
O=C(c1cc2c(cc1F)OC(c1ccc(F)cc1)(c1ccc(Cl)cc1Cl)O2)N1CCOCC1 (stereo not given),0,–,0,0,0,–,1,–,–,–
CC(C)NC(=O)N1CC[C@H](NC2=Nc3cc(F)ccc3N(CC(F)F)c3ccc(Cl)cc32)C1,0,0,0,0,0,–,1,1,1,–
CC(C)Oc1ccccc1C(=O)Nc1ccccc1C(=O)Nc1cccc(S(=O)(=O)C(F)(F)F)c1,0,–,–,1,1,–,–,–,–,–
CC1=C(C(=O)Nc2cc3cn[nH]c3cc2F)C(c2ccc(C(F)(F)F)cc2)CC(=O)N1 (stereo not given),–,–,–,1,1,–,–,–,–,–
Cc1nc(N2CC[C@H](O)C2)ncc1-c1cc(C(F)(F)F)cc2[nH]ncc12,1,0,1,0,0,–,1,–,1,–
CN1CCN(Cc2cc(NC(=O)c3ccc4c(c3)CN(c3ccccc3)CC4)cc(C(F)(F)F)c2)CC1,1,0,0,0,0,0,1,–,–,–
CN(c1ccccc1CNc1nc(Nc2ccc3c(c2)CC(=O)N3)ncc1C(F)(F)F)S(C)(=O)=O,0,0,0,0,0,–,–,–,–,–
Cl.O=C(O)c1cc(-c2ccc(C3CCNCC3)cc2)c2ccc(-c3ccc(C(F)(F)F)cc3)cc2c1,1,0,0,0,0,0,–,–,–,–
O=c1[nH]c2ccccc2n1C1CCN(Cc2ccc(-c3[nH]c4cc5ncnc5cc4nc3-c3ccccc3)cc2)CC1,0,–,0,0,0,–,–,1,1,1
CCc1ccc(OCc2ccccc2C(=O)Nc2ccc3nc(C)cc(N)c3c2)cc1.Cl,0,0,0,0,0,–,–,–,–,–
CNC(=O)Nc1ccc(-c2nc(N3CC4CCC(C3)O4)c3cnn(C4CCC5(CC4)OCCO5)c3n2)cc1,–,1,0,0,0,0,–,–,1,1
CNC(=O)Nc1ccc2c(c1)[C@@]1(CC2)OC(=O)N(CC(=O)N(Cc2ccc(F)cc2)[C@@H](C)C(F)(F)F)C1=O [A-486],0,0,0,0,0,–,–,1,–,1
CNCc1ccccc1-c1csc([C@@H](C)Nc2nc(C)nc3cc(OC)c(OC)cc23)c1 [BAY-293],0,0,0,0,0,–,1,–,–,–

SMILES,Growth Rate [1],Growth Rate [2],Growth Rate [3],Growth Rate [4],Growth Rate [5],Growth Rate [6],Growth Rate [7],Growth Rate [8],Growth Rate [9],Growth Rate [10]
Cc1c[nH]c2nccc(Oc3c(F)cc(Nc4cc(Cl)nc(N)n4)cc3F)c12 [BAY-549],–,0,0,0,0,0,–,–,–,–
Cc1cc(C)c(-n2ccn3nc(-c4cccnc4)cc23)cc1NC(=O)c1cc(C#N)cc(S(F)(F)(F)(F)F)c1 [BAY-826],–,1,0,0,0,0,–,–,–,–
COc1ccc(-c2ccc3ncc4c(c3c2)n(-c2ccc(N3CCNCC3)c(C(F)(F)F)c2)c(=O)n4C)cn1.O=C(O)/C=C\C(=O)O [BGT-226],0,0,0,0,0,–,–,–,–,–
C=CC(=O)Nc1ccc2[nH]c(=O)n(C3CCN(Cc4ccc(-c5nc6cc[nH]c(=O)c6cc5-c5ccccc5)cc4)CC3)c2c1 [Borussertib],–,1,1,1,1,1,–,–,–,0
COc1ccccc1CN[C@H]1C2CCN(CC2)[C@H]1C(c1ccccc1)c1ccccc1 [CP-96345],0,–,1,1,1,–,1,–,–,–
CNC(=O)c1ccc(Nc2ncc(C(F)(F)F)c(NCc3nccnc3N(C)S(C)(=O)=O)n2)cc1 [DEFACTINIB],0,1,0,0,0,1,0,–,–,–
CN1CCN(Cc2ccc(Nc3ncc(Cl)c(Nc4ccccc4S(=O)(=O)N(C)C)n3)cc2)CC1 [DUBERMATINIB],0,1,0,0,0,–,–,–,–,–
C#Cc1cccc(Nc2ncnc3cc(OCCOC)c(OCCOC)cc23)c1 [ERLOTINIB],–,–,1,0,1,1,0,0,–,0
C[C@]12CC[C@@H]3c4ccc(O)cc4CC[C@H]3[C@@H]1CC[C@@H]2O [ESTRADIOL],–,0,0,0,0,0,–,–,–,–
CC(C)c1noc(N2CCC(COc3ccc(-c4ccc(S(C)(=O)=O)cc4)nc3)CC2)n1 [GSK-1292263],0,–,–,1,1,–,–,1,–,–
COc1cc2ncn(-c3cc(OCc4ccccc4C(F)(F)F)c(C(N)=O)s3)c2cc1OC [GW843682X],–,–,1,0,0,0,–,0,–,–
Cc1ccc2c(c1)c1c(n2CCc2ccc(C)nc2)CCN(C)C1 [LATREPIRDINE],0,–,1,0,1,–,0,–,–,0
C[C@]1(O)C[C@@H](c2nc(-c3ccc4ccc(-c5ccccc5)nc4c3)c3c(N)nccn32)C1 [LINSITINIB],1,0,0,0,0,–,–,–,–,–
CCc1nn(CCCN2CCN(c3cccc(Cl)c3)CC2)c(=O)n1CCOc1ccccc1.Cl [NEFAZODONE HYDROCHLORIDE],–,1,0,1,0,–,–,–,0,–
COC(=O)C1=C(C)NC(C)=C(C(=O)OCCCN2CCC(c3ccccc3)(c3ccccc3)CC2)[C@H]1c1cccc([N+](=O)[O-])c1 [NIGULDIPINE],0,–,0,0,0,–,0,–,–,–
CC(C)CC(=O)Nc1[nH]nc2c1CN(C(=O)C1CCN(C)CC1)C2(C)C [PHA-793887],1,0,0,0,0,0,–,–,–,–
CCCSc1nc(N[C@@H]2C[C@H]2c2ccc(F)c(F)c2)c2nnn([C@@H]3C[C@H](OCCO)[C@@H](O)[C@H]3O)c2n1 [TICAGRELOR],0,0,0,0,0,–,–,–,–,–
CC(C)(C)NC[C@H](O)COc1nsnc1N1CCOCC1 [TIMOLOL],0,–,–,1,1,–,1,1,–,–
